From patent US20070003987A1, “Screening method for substance binding to merozoite surface protein-1/42” (priority 2003, published 2007) come the findings set out here.

SMILES strings stand for the structures.

For one assay, the system named is P. falciparum (FCB-1). As to the kind of experiment: short-term in vitro invasion assay (newly invaded ring stages counted by microscopy). The assay is classed as cell-based, Plasmodium falciparum. The method, then: Asexual blood stages of P. falciparum (FCB-1) were maintained at 37° C. in RPMI 1640/Albumax medium (Gibco) supplemented with 2 mM L-glutamine as previously described (Blackman, 1994 Methods Cell Biol. 45, 213-220). Cultures were gassed with 7% CO2, 5% O2 and 88% N2 and maintained by routine passage in fresh human erythrocytes. Parasites were synchronised by Percoll and sorbitol treatment (Holder & Freeman, 1982 J. Exp. Med. 156, 1528-1538); schizonts were purified by centrifugation over Percoll and then returned to culture in the presence of fresh erythrocytes. After 4 h, during which time released merozoites invaded erythrocytes, the cells were treated with 5% sorbitol for 10 min to lyse the residual schizonts, before returning the parasites to culture.
Compounds were tested for their ability to inhibit invasion in vitro, using two approaches: a short-term assay in which the number of newly invaded erythrocytes was counted using microscopy, and a growth assay measuring uptake of [^3H] hypoxanthine. In the short term-assay (described previously by Blackman et al, 1990 J. Exp. Med. 172, 379-382), compounds were incubated with purified P. falciparum schizonts at ^˜2% parasitaemia and ^˜2% haematocrit in triplicate cultures. After between 6 and 24 h, blood smears were stained with Giemsa's reagent and examined by microscopy. […]

A further assay concerns the target T1, P. vivax MSP142 (Plasmodium vivax, UniProt Q02569, A1444G/T1362K/T1451N).
T1 sequence (Q02569 1325-1704 T1362K/A1444G/T1451N): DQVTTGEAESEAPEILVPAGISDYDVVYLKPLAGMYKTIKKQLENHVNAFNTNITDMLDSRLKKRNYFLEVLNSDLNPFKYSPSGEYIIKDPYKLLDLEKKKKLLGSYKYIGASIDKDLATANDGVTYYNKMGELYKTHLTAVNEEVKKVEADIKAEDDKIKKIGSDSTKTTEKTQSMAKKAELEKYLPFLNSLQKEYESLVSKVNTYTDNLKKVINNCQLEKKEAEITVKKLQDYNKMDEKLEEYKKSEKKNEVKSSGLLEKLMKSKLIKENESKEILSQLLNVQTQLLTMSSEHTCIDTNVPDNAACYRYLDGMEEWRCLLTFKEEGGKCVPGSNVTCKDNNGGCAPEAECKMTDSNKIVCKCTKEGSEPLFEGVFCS
Put plainly: isothermal titration calorimetry. The assay is classed as binding. From the text:
The MSP142 protein from P. vivax was cloned into plasmid jmp28, a modified pET-28 vector that encodes an N-terminal peptide MHHHHHHIEGRWIL immediately upstream of the inserted sequence. P. vivax (Belem strain) DNA was used as a template for PCR based cloning. The sequence of the expressed protein (following the vector encoded N-terminal peptide) corresponded to residues Asp 1325 to Ser 1704, Accession number A39401.
The protein was expressed in BL21(DE3)pLysS cells by induction of a culture at an OD600 of 0.6-0.8 with IPTG at a final concentration of 1 mM. The cells were induced for 3 h at 37° C. and then harvested by centrifugation. The cells were lysed using the Bugbuster protein extraction reagent (Novagen), after centrifugation of the cell lysate, the pellet containing the MSP142 was dissolved in 6M Guanidine-HCl, 100 mM Na2HPO4, 10 mM Tris-HCl, pH 8.0. This was applied to a Ni-NTA column, washed with 10 column volumes of the loading buffer, followed by 6 column volumes of 8 M Urea, 100 mM Na2HPO4, 10 mM Tris-HCl, at pH 7.0, and 6 column volumes at pH 6.1. The protein was eluted in 3 column volumes 8 M Urea, 100 mM Na2HPO4, 10 mM Tris-HCl, pH 4.3. […]
In addition to the fluorimetry, isothermal titration calorimetry (ITC) was performed using a Microcal omega VP-ITC (MicroCal Inc., Northampton, Mass.). […] The heat of dilution of suramin into buffer was determined in control experiments. […]
(In general: Isothermal titration calorimetry measures the heat released or taken up as one component is titrated into another.)

What is called Kd is the constant that tells how readily two partners part at equilibrium. A low value points to higher affinity. Consider `Cc1ccc(C(=O)Nc2ccc(S(=O)(=O)O)c3cc(S(=O)(=O)O)cc(S(=O)(=O)O)c23)cc1NC(=O)c1cccc(NC(=O)Nc2cccc(C(=O)Nc3cc(C(=O)Nc4ccc(S(=O)(=O)O)c5cc(S(=O)(=O)O)cc(S(=O)(=O)O)c45)ccc3C)c2)c1` [suramin], for which, in the assay with P. falciparum (FCB-1), the “inhibition of merozoite invasion of erythrocytes (microscopy, Giemsa)” value is listed as “inhibited merozoite invasion of erythrocytes” and the “inhibition of merozoite release from schizonts (microscopy)” value is recorded as “did not inhibit merozoite release from schizonts”. The same compound registered a Kd on P. vivax MSP142 of 0.3 ± 0.1 µM. The AH value on P. vivax MSP142 (ITC, 25° C.) stood at 46 ± 4.2 kJ/mol.
